Assays:
[1] = biological target: T1, DDR1 (Homo sapiens, UniProt Q08345); experiment: DDR1 binding assay (LanthaScreen Europium Kinase Binding assay); set-up: purchased Carna Biosciences; settings: binding assay, 5 nM DDR1, 20 nM Kinase Tracer 178; Ki from IC50 by Cheng-Prusoff; read-out: Ki DDR1
Procedure: (§1) DDR1 and DDR2 binding assays were performed using Life Technologies LanthaScreen™ Europium Kinase Binding assay. The compounds were incubated with 5 nM DDR1 (Carna Biosciences) or 5 nM DDR2 (Life Technologies) for 1 hour at room temperature in white 384-well OptiPlate (PerkinElmer), containing 20 nM or 10 nM Kinase Tracer 178 respectively and 2 nM Europium labelled anti-GST antibody (Life Technologies) in assay buffer (50 mM HEPES pH 7.5, 10 mM MgCl2, 1 mM EGTA and 0.01% BRIJ35).
(§2) The ratio of fluorescence emission 665 nm/615 nm after excitation at 340 nm was obtained using the Tecan Spark 20M plate reader. IC50 values were determined in GraphPad Prism 7.0 software, using 4 parameter model: log(inhibitor) vs. response. IC50 values were converted in Ki using the Cheng-Prusoff equation

[2] = biological target: T2, DDR2 (Homo sapiens, UniProt Q16832); experiment: DDR2 binding assay (LanthaScreen Europium Kinase Binding assay); set-up: purchased Life Technologies; settings: binding assay, 5 nM DDR2, 10 nM Kinase Tracer 178; Ki from IC50 by Cheng-Prusoff; read-out: Ki DDR2
T2 sequence (Q16832 22-855): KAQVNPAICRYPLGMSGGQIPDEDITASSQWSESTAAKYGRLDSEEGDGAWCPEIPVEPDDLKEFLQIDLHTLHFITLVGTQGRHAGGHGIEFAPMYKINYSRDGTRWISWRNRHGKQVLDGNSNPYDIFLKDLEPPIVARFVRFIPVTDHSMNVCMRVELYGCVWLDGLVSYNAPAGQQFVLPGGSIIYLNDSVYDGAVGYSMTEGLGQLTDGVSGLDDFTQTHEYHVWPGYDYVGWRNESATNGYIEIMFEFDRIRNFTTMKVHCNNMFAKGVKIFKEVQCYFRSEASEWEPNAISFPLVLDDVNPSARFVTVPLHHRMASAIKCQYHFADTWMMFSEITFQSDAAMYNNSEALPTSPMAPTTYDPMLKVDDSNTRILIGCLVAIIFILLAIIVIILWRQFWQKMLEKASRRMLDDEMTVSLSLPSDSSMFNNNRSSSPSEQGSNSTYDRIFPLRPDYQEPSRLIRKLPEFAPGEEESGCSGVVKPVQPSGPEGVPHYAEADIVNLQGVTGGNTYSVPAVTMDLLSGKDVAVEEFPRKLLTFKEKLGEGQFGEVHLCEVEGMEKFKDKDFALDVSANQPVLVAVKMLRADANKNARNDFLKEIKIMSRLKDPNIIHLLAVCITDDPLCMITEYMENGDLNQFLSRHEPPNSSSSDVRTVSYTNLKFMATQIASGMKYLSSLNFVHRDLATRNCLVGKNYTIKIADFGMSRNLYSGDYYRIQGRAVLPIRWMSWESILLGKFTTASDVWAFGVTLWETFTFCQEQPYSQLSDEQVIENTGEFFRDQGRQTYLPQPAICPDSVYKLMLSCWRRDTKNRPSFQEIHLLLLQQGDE
Procedure: as §1, §2

[3] = biological target: T1, DDR1; experiment: DDR1 cell based assay (PathHunter U2OS DDR1 assay); set-up: host or cells: U2OS-DDR1 (PathHunter); settings: U2OS-DDR1 cells, bovine Type II Collagen 20 μg/ml
Procedure: The inhibition of DDR1 receptor activation by compounds was evaluated by PathHunter® U2OS DDR1 assay (Eurofins DiscoverX), according to the manufacturer's instructions. Briefly, U2OS-DDR1 cells were seeded in white 384-well plates at a density of 5000 cells/well and incubated for 2 hours at 37° C. and 5% CO2. Cells were then treated with compounds at different concentrations and incubated for 30 minutes, before stimulation with bovine Type II Collagen 20 μg/ml and incubation overnight at 37° C. and 5% CO2. PathHunter Detection Reagents were prepared according to the protocol provided by DiscoverX and 20 μl/well of this mix were added to each well. After incubating the plates for 1 hour at room temperature in the dark, luminescence signal was acquired with a plate reader. Raw data were normalized to vehicle control (0% for normalization) and positive control (100% for normalization; cells treated with 20 μg/ml collagen II) and IC50 parameters were calculated in GraphPad Prism 8.0 software, using sigmoidal dose-response curve fitting with variable slope.

T1 sequence (Q08345 19-913): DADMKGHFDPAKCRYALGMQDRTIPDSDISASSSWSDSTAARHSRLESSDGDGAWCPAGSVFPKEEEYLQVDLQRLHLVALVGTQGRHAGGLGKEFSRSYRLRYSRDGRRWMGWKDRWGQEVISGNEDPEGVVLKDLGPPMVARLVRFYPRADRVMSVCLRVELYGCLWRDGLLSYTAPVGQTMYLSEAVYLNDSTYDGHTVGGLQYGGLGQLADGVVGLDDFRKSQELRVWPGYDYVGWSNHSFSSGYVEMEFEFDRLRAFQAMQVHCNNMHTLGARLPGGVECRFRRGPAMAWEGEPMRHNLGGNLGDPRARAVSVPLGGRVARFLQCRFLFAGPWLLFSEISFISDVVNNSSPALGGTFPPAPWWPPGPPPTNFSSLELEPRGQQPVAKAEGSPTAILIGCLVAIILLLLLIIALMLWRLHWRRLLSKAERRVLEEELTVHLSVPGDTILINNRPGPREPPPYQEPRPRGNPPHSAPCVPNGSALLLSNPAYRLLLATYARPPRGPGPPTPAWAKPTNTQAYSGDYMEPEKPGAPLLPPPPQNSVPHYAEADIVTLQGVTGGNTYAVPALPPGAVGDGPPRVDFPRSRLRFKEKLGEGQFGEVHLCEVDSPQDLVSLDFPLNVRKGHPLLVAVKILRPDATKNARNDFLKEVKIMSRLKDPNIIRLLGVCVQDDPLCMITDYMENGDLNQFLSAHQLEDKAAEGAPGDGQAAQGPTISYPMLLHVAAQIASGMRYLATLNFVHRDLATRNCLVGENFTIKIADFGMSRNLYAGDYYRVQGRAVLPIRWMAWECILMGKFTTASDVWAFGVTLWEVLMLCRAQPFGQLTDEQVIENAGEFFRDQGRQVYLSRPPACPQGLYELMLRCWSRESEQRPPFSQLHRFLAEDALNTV

Compound | Ki [1] | Ki [2] | IC50 [3]
O=C(Nc1cncc(C(F)(F)F)c1)c1csc2c1CCN(C(=O)c1cnc3n1CCCC3)C2 [Example 111, 6-(5,6,7,8-tetrahydroimidazo[1,2-a]pyridine-3-carbonyl)-N-(5-(trifluoromethyl)pyridin-3-yl)-4,5,6,7-tetrahydrothieno[2,3-c]pyridine-3-carboxamide] | < 25 nM | < 25 nM | 50 to 80 nM
O=C(Nc1cccc(C(F)(F)F)c1)c1csc2c1CCN(C(=O)c1cnc3ccc(OCCN4CCOCC4)cn13)C2 [Example 170, 6-(6-(2-morpholinoethoxy)imidazo[1,2-a]pyridine-3-carbonyl)-N-(3-(trifluoromethyl)phenyl)-4,5,6,7-tetrahydro thieno[2,3-c]pyridine-3-carboxamide] | < 25 nM | < 25 nM | 25 to 50 nM
O=C(Nc1ccc(OCCO)c(C(F)(F)F)c1)c1csc2c1CCN(C(=O)c1cnc3ccccn13)C2 [Example 16, N-(4-(2-hydroxyethoxy)-3-(trifluoromethyl)phenyl)-6-(imidazo[1,2-a]pyridine-3-carbonyl)-4,5,6,7-tetrahydrothieno[2,3-c]pyridine-3-carboxamide] | < 25 nM | < 25 nM | < 25 nM
Cc1ccn2c(C(=O)N3CCc4c(C(=O)Nc5cc(C(C)(C)C)nn5C)csc4C3)cnc2c1 [Example 79, N-(5-tert-butyl-2-methyl-pyrazol-3-yl)-6-(7-methylimidazo[1,2-a]pyridine-3-carbonyl)-5,7-dihydro-4H-thieno[2,3-c]pyridine-3-carboxamide] | < 25 nM | < 25 nM | 25 to 50 nM
O=C(Nc1cncc(C(F)(F)F)c1)c1csc2c1CCN(C(=O)c1cnc3n1CCCN3)C2 [Example 120, 6-(5,6,7,8-tetrahydroimidazo[1,2-a]pyrimidine-3-carbonyl)-N-(5-(trifluoromethyl)pyridin-3-yl)-4,5,6,7-tetrahydrothieno[2,3-c]pyridine-3-carboxamide] | < 25 nM | < 25 nM | 50 to 80 nM
CC(C)c1cc(NC(=O)c2csc3c2CCN(C(=O)c2cnc4ccccn24)C3)n(C)n1 [Example 36, 6-(imidazo[1,2-a]pyridine-3-carbonyl)-N-(3-isopropyl-1-methyl-1H-pyrazol-5-yl)-4,5,6,7-tetrahydrothieno[2,3-c]pyridine-3-carboxamide] | < 25 nM | < 25 nM | 50 to 80 nM
O=C(Nc1cncc(C(F)(F)F)c1)c1csc2c1CCN(C(=O)c1cnc3n1CCOC3)C2 [Example 110, 6-(5,6-dihydro-8H-imidazo[2,1-c][1,4]oxazine-3-carbonyl)-N-(5-(trifluoromethyl)pyridin-3-yl)-4,5,6,7-tetrahydrothieno[2,3-c]pyridine-3-carboxamide] | < 25 nM | < 25 nM | 25 to 50 nM
CC(C)(C)c1cc(NC(=O)c2csc3c2CCN(C(=O)c2cnc4ccccn24)C3)n(-c2ccc(F)cc2)n1 [Example 5, N-(3-(tert-butyl)-1-(4-fluorophenyl)-1H-pyrazol-5-yl)-6-(imidazo[1,2-a]pyridine-3-carbonyl)-4,5,6,7-tetrahydrothieno[2,3-c]pyridine-3-carboxamide] | < 25 nM | < 25 nM | 25 to 50 nM
Cc1ccc2ncc(C(=O)N3CCc4c(C(=O)Nc5cc(C(C)(C)C)nn5C)csc4C3)n2c1 [Example 80, N-(3-(tert-butyl)-1-methyl-1H-pyrazol-5-yl)-6-(6-methylimidazo[1,2-a]pyridine-3-carbonyl)-4,5,6,7-tetrahydrothieno[2,3-c]pyridine-3-carboxamide] | < 25 nM | < 25 nM | 25 to 50 nM
Cn1nc(C(C)(C)C)cc1NC(=O)c1csc2c1CCN(Cc1cnc3[nH]ncc3c1)C2 [Example 77, 6-((1H-pyrazolo[3,4-b]pyridin-5-yl)methyl)-N-(3-(tert-butyl)-1-methyl-1H-pyrazol-5-yl)-4,5,6,7-tetrahydrothieno[2,3-c]pyridine-3-carboxamide] | < 25 nM | < 25 nM | < 25 nM
O=C(Nc1cncc(OC(F)(F)F)c1)c1csc2c1CCN(C(=O)c1cnc3ccccn13)C2 [Example 186, 6-(imidazo[1,2-a]pyridine-3-carbonyl)-N-(5-(trifluoromethoxy)pyridin-3-yl)-4,5,6,7-tetrahydrothieno[2,3-c]pyridine-3-carboxamide] | < 25 nM | < 25 nM | < 25 nM
O=C(Nc1cc(OCCN2CCCC2)cc(C(F)(F)F)c1)c1csc2c1CCN(C(=O)c1cnc3ccccn13)C2 [Example 26, 6-(imidazo[1,2-a]pyridine-3-carbonyl)-N-(3-(2-(pyrrolidin-1-yl)ethoxy)-5-(trifluoromethyl)phenyl)-4,5,6,7-tetrahydrothieno[2,3-c]pyridine-3-carboxamide] | < 25 nM | < 25 nM | 25 to 50 nM

Second part, the compound after the results:

Ki [1] | Ki [2] | IC50 [3] | Compound
< 25 nM | < 25 nM | 25 to 50 nM | CC(C)(C)c1cc(NC(=O)c2csc3c2CCN(C(=O)c2cnc4n2CCOC4)C3)on1 [Example 112, N-(3-(tert-butyl)isoxazol-5-yl)-6-(5,6-dihydro-8H-imidazo[2,1-c][1,4]oxazine-3-carbonyl)-4,5,6,7-tetrahydrothieno[2,3-c]pyridine-3-carboxamide]
< 25 nM | < 25 nM | 50 to 80 nM | CCC(C)(C)c1cc(NC(=O)c2csc3c2CCN(C(=O)c2cnn4ccncc24)C3)on1 [Example 179, N-(3-(tert-pentyl)isoxazol-5-yl)-6-(pyrazolo[1,5-a]pyrazine-3-carbonyl)-4,5,6,7-tetrahydrothieno[2,3-c]pyridine-3-carboxamide]
< 25 nM | < 25 nM | 50 to 80 nM | CC(C)(C)c1cc(NC(=O)c2csc3c2CCN(C(=O)c2cnn4ccncc24)C3)no1 [Example 175, N-(5-(tert-butyl)isoxazol-3-yl)-6-(pyrazolo[1,5-a]pyrazine-3-carbonyl)-4,5,6,7-tetrahydrothieno[2,3-c]pyridine-3-carboxamide]
< 25 nM | < 25 nM | < 25 nM | COc1ccn2ncc(C(=O)N3CCc4c(C(=O)Nc5cncc(C(F)(F)F)c5)csc4C3)c2c1 [Example 140, 6-(5-methoxypyrazolo[1,5-a]pyridine-3-carbonyl)-N-(5-(trifluoromethyl)pyridin-3-yl)-4,5,6,7-tetrahydrothieno[2,3-c]pyridine-3-carboxamide]
< 25 nM | < 25 nM | 25 to 50 nM | CC(C)(C)c1coc(NC(=O)c2csc3c2CCN(C(=O)c2cnc4ccccn24)C3)n1 [Example 47, N-(4-(tert-butyl)oxazol-2-yl)-6-(imidazo[1,2-a]pyridine-3-carbonyl)-4,5,6,7-tetrahydrothieno[2,3-c]pyridine-3-carboxamide]
< 25 nM | < 25 nM | < 25 nM | O=C(Nc1cc(CO)cc(C(F)(F)F)c1)c1csc2c1CCN(C(=O)c1cnn3ccncc13)C2 [Example 187, N-(3-(hydroxymethyl)-5-(trifluoromethyl)phenyl)-6-(pyrazolo[1,5-a]pyrazine-3-carbonyl)-4,5,6,7-tetrahydrothieno[2,3-c]pyridine-3-carboxamide]

— patent US20240391936A1, “TETRAHYDROTHIENO PYRIDINE DERIVATIVES AS DDRS INHIBITORS” (CHIESI FARMACEUTICI S.P.A., priority 2021, published 2024)
